Results on 13 compounds are retold here after paper PMC7382964 (Biochemical pharmacology, 2020).

The target of assay [1] is hA3AR (Homo sapiens, UniProt P0DMS8). Put plainly: βarr2 recruitment bioassay. Type of assay: cell-based.
Target sequence in this assay (P32121 whole entry partner, one chain of several): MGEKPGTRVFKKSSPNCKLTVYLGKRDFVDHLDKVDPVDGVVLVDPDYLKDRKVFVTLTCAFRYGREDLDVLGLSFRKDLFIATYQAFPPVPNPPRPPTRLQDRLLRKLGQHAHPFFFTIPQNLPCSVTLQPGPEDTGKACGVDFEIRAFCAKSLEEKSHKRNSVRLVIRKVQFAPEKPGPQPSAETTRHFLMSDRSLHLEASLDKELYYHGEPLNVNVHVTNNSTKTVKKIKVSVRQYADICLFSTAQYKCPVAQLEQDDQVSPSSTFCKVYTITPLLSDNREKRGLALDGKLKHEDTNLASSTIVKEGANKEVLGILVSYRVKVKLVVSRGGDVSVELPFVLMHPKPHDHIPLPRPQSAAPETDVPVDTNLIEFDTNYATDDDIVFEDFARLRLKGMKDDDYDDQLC
Assay [2] concerns the target T1, hA3AR (Homo sapiens, UniProt P0DMS8).
T1 sequence (P0DMS8 1-318): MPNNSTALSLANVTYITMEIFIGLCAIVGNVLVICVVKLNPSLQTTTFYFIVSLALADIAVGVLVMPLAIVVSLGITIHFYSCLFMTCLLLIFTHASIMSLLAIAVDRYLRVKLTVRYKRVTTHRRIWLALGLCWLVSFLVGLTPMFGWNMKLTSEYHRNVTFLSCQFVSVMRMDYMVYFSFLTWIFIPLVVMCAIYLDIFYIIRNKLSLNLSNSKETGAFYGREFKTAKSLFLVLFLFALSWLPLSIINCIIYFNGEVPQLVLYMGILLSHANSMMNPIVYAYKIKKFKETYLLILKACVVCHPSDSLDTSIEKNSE
Put plainly: miniGαi recruitment bioassay. Type of assay: cell-based.

Assay [3] relates to A3AR. Conditions: cited from earlier work.
In assay [4] the test system is A3AR. Conditions: Gao et al.; cited from earlier work.
Assay [5] relates to A3AR. Conditions: Gao et al.; cited from earlier work. This is another data set of the same source.
Assay [6] deals with T2, cannabinoid receptor CB1 (Homo sapiens, UniProt P21554). Put plainly: miniGαi coupling assay with CB1 cannabinoid receptor. Type of assay: cell-based. Conditions: 5 μM.
The target in assay [7] is T2, cannabinoid receptor CB1. Put plainly: βarr2 recruitment assay with CB1 cannabinoid receptor. Type of assay: cell-based. The conditions noted are these: 5 μM.
[8] abbreviates: addition of 2-chloro substituent.
The mark [9] stands for this setting: 90 min read-out, AUC, normalized to NECA.

T2 sequence (P21554 whole entry): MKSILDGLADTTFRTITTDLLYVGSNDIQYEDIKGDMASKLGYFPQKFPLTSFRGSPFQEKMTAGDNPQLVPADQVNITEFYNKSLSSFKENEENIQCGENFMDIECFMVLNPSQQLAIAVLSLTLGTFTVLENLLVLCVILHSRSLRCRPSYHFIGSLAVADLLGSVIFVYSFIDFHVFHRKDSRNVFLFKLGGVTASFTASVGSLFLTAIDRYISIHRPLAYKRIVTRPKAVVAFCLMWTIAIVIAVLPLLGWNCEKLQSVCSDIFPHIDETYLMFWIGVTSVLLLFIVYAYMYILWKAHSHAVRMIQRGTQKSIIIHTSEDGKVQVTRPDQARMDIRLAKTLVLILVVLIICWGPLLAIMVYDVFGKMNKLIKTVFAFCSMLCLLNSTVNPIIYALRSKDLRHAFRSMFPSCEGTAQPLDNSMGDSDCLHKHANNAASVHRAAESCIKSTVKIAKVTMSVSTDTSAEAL

In general, EC50 refers to the concentration needed to bring the measured effect to its halfway point. As to `CC(C)Nc1ncnc2c1ncn2[C@@H]1O[C@H](CO)[C@H](O)C1O` (stereo partly shown) [compound 10], the EC50 in assay [1] (read-out: EC50, βarr2 recruitment, 90 min read-out, AUC, normalized to NECA) turned out to be 669 nM; in assay [2] (read-out: EC50, miniGαi recruitment, 90 min read-out, AUC, normalized to NECA), 433 nM.
On to `OC[C@H]1O[C@@H](n2cnc3c(NCC(c4ccccc4)c4ccccc4)ncnc32)[C@H](O)[C@@H]1O` [compound 19], for which the “functional class in the cAMP pathway” value in assay [3] (Tchilibon et al.) is “antagonist”.
Consider `CC(C)C(Nc1ncnc2c1ncn2C1OC(CO)C(O)C1O)C(C)C` (stereo not shown) [compound 12], for which the “receptor activation signal, βarr2 bioassay” value in assay [1] was “could not be measured”. Further, in assay [2], the “receptor activation signal, miniGαi bioassay” value is “could not be measured”.
Consider `OCC1OC(n2cnc3c(NC4CCCCC4c4ccccc4)ncnc32)C(O)C1O` (stereo not shown) [compound 4], for which the “receptor activation signal, βarr2 bioassay” value in assay [1] is recorded as “no clear activation signal”. For the same compound, the “receptor activation signal, miniGαi bioassay” value in assay [2] is reported as “no clear activation signal”.
Turning to `CC(Cc1ccccc1)Nc1nc(Cl)nc2c1ncn2C1OC(CO)C(O)C1O` (stereo not shown) [compound 9], the “fold increased potency versus compound 8, βarr2” value in assay [1] (setting [8]) is “approximately five”. Moreover, the “fold increased potency versus compound 8, miniGαi” value in assay [2] (setting [8]) was “approximately five”.
As for `OCC1OC(n2cnc3c(NC4CC4c4ccccc4)ncnc32)C(O)C1O` (stereo not shown) [compound 2], the “fold reduction in potency versus compound 1, βarr2” value in assay [1] (inversion to 1R,2S orientation) was determined as 40 fold. In addition, in assay [2] (inversion to 1R,2S orientation), the “fold reduction in potency versus compound 1, miniGαi” value is given as ~100 fold.
Consider `CNC(=O)[C@H]1O[C@@H](n2cnc3c(NCc4cccc(I)c4)nc(Cl)nc32)[C@H](O)[C@@H]1O` [2-Cl-IB-MECA, 2-chloro-N^6-(3-iodobenzyl)-5′-N-methylcar-boxamidoadenosine], for which the “agonist class in calcium mobilization assay” value in assay [4] is on record as “partial agonist”. For the same compound, the “agonist class in PathHunter assay for βarr2 recruitment” value in assay [5] is recorded as “full agonist”.
On to `OC[C@H]1O[C@@H](n2cnc3c(NCc4ccco4)ncnc32)[C@H](O)[C@@H]1O` [compound 14], for which, in assay [1] (setting [9]), the “EC50, βarr2 recruitment” value is “micromolar range”. Further, the “EC50, miniGαi recruitment” value in assay [2] (setting [9]) is on record as “micromolar range”.
Regarding `OCC1OC(n2cnc3c(NC(C4CC4)C4CC4)ncnc32)C(O)C1O` (stereo not shown) [compound 13], the “receptor activation signal, βarr2 bioassay” value in assay [1] is on record as “same observation”. Also, the “receptor activation signal, miniGαi bioassay” value in assay [2] is listed as “same observation”.
On to `OC[C@H]1O[C@@H](n2cnc3c(N[C@H]4C[C@@H]4c4ccccc4)ncnc32)[C@H](O)[C@@H]1O` [compound 1, N^6-((1S,2R)-2-phenyl-1-cyclopropyl)-adenosine], for which, in assay [6], the “signal in miniGαi coupling assay with CB1-LgBiT” value is recorded as “unable to generate a signal”. The “signal in βarr2 recruitment assay with CB1-LgBiT” value in assay [7] was “unable to generate a signal”.
Take `OCC1OC(n2cnc3c(NC4CCc5ccccc54)ncnc32)C(O)C1O` (stereo not shown) [compound 17]: the “EC50, βarr2 recruitment” value in assay [1] (setting [9]) is reported as “micromolar range”. Moreover, in assay [2] (setting [9]), the “EC50, miniGαi recruitment” value was “micromolar range”.
With `OCC1OC(n2cnc3c(NCc4cccs4)ncnc32)C(O)C1O` (stereo not shown) [compound 15], the “EC50, βarr2 recruitment” value in assay [1] (setting [9]) was “micromolar range”. For the same compound, in assay [2] (setting [9]), the “EC50, miniGαi recruitment” value is listed as “micromolar range”.
As to `CNC(=O)[C@H]1O[C@@H](n2cnc3c(NCc4cccc(I)c4)ncnc32)[C@H](O)[C@@H]1O` [IB-MECA], in assay [3] (previously reported), the “Emax, cAMP assay” value is […]. For the same compound, in assay [3] (read-out: EC50, cAMP assay, previously reported), the EC50 is […].
